In the NIST ThermoML archive (doi:10.1021/je800636k):
Numbers after ± are expanded uncertainties.

Experiment: xn = mol fraction of the nth substance listed
Conditions: 101 kPa, Liquid; for electrical conductivity: Qcond 2400 VWR international / cell constant, 1.05; for viscosity: Concentric cylinders viscometry; for mass density: Vibrating tube method

With `CCCCn1cc[n+](C)c1C.[N-]=[N+]=[N-]` [1-butyl-2,3-dimethylimidazolium azide] + CCCCn1cc[n+](C)c1C.F[B-](F)(F)F the electrical conductivity (303.15 K, x1 = 0.25) was 0.0809 ± 0.0032 S/m, the electrical conductivity (303.15 K, x1 = 0.5) was 0.0608 ± 0.0024 S/m and the electrical conductivity (303.15 K, x1 = 0.75) was 0.0604 ± 0.0024 S/m. The electrical conductivity (303.15 K, x1 = 1) was 0.0488 ± 0.0019 S/m, the electrical conductivity (308.15 K, x1 = 0.25) was 0.114 ± 0.0046 S/m and the electrical conductivity (308.15 K, x1 = 0.5) was 0.0887 ± 0.0036 S/m. For the same molecule, the electrical conductivity (308.15 K, x1 = 0.75) was 0.0881 ± 0.0035 S/m, the electrical conductivity (308.15 K, x1 = 1) was 0.0756 ± 0.003 S/m and the viscosity (313.15 K, x1 = 0.25) was 210.46 ± 5.5 mPa·s. It also gave a viscosity (313.15 K, x1 = 0.5) of 292.06 ± 8.3 mPa·s, a viscosity (313.15 K, x1 = 0.75) of 353.89 ± 11 mPa·s and a viscosity (313.15 K, x1 = 1) of 338.19 ± 10 mPa·s. It also gave an electrical conductivity (313.15 K, x1 = 0.25) of 0.156 ± 0.0062 S/m, an electrical conductivity (313.15 K, x1 = 0.5) of 0.125 ± 0.005 S/m and an electrical conductivity (313.15 K, x1 = 0.75) of 0.124 ± 0.005 S/m. It also gave an electrical conductivity (313.15 K, x1 = 1) of 0.112 ± 0.0045 S/m, a mass density (313.15 K, x1 = 0.25) of 1154.97 ± 2.6 kg/m3 and a mass density (313.15 K, x1 = 0.5) of 1129.46 ± 2.5 kg/m3. For the same molecule, the mass density (313.15 K, x1 = 0.75) was 1098.68 ± 2.3 kg/m3, the mass density (313.15 K, x1 = 1) was 1070.46 ± 2.2 kg/m3 and the electrical conductivity (318.15 K, x1 = 0.25) was 0.208 ± 0.0083 S/m. It also gave an electrical conductivity (318.15 K, x1 = 0.5) of 0.172 ± 0.0069 S/m, an electrical conductivity (318.15 K, x1 = 0.75) of 0.171 ± 0.0068 S/m and an electrical conductivity (318.15 K, x1 = 1) of 0.159 ± 0.0064 S/m. It also gave a viscosity (323.15 K, x1 = 0.25) of 115.24 ± 2.4 mPa·s, a viscosity (323.15 K, x1 = 0.5) of 156.81 ± 3.6 mPa·s and a viscosity (323.15 K, x1 = 0.75) of 183.02 ± 4.4 mPa·s. It also gave a viscosity (323.15 K, x1 = 1) of 176.04 ± 4.2 mPa·s, an electrical conductivity (323.15 K, x1 = 0.25) of 0.271 ± 0.011 S/m and an electrical conductivity (323.15 K, x1 = 0.5) of 0.23 ± 0.0092 S/m. For the same molecule, the electrical conductivity (323.15 K, x1 = 0.75) was 0.228 ± 0.0091 S/m, the electrical conductivity (323.15 K, x1 = 1) was 0.219 ± 0.0088 S/m and the mass density (323.15 K, x1 = 0.25) was 1148.74 ± 2.5 kg/m3. For the same molecule, the mass density (323.15 K, x1 = 0.5) was 1123.48 ± 2.4 kg/m3, the mass density (323.15 K, x1 = 0.75) was 1092.32 ± 2.3 kg/m3 and the mass density (323.15 K, x1 = 1) was 1065.14 ± 2.2 kg/m3. The electrical conductivity (328.15 K, x1 = 0.25) was 0.345 ± 0.014 S/m, the electrical conductivity (328.15 K, x1 = 0.5) was 0.302 ± 0.012 S/m and the electrical conductivity (328.15 K, x1 = 0.75) was 0.299 ± 0.012 S/m. The electrical conductivity (328.15 K, x1 = 1) was 0.294 ± 0.012 S/m, the viscosity (333.15 K, x1 = 0.25) was 68.72 ± 1.2 mPa·s and the viscosity (333.15 K, x1 = 0.5) was 92.5 ± 1.8 mPa·s. It also gave a viscosity (333.15 K, x1 = 0.75) of 105.08 ± 2.1 mPa·s, a viscosity (333.15 K, x1 = 1) of 101.63 ± 2 mPa·s and an electrical conductivity (333.15 K, x1 = 0.25) of 0.433 ± 0.017 S/m. It also gave an electrical conductivity (333.15 K, x1 = 0.5) of 0.388 ± 0.015 S/m, an electrical conductivity (333.15 K, x1 = 0.75) of 0.383 ± 0.015 S/m and an electrical conductivity (333.15 K, x1 = 1) of 0.383 ± 0.015 S/m. It also gave a mass density (333.15 K, x1 = 0.25) of 1142.5 ± 2.5 kg/m3, a mass density (333.15 K, x1 = 0.5) of 1117.5 ± 2.4 kg/m3 and a mass density (333.15 K, x1 = 0.75) of 1085.96 ± 2.3 kg/m3. The mass density (333.15 K, x1 = 1) was 1059.83 ± 2.2 kg/m3, the electrical conductivity (338.15 K, x1 = 0.25) was 0.535 ± 0.021 S/m and the electrical conductivity (338.15 K, x1 = 0.5) was 0.489 ± 0.02 S/m. The electrical conductivity (338.15 K, x1 = 0.75) was 0.483 ± 0.019 S/m, the electrical conductivity (338.15 K, x1 = 1) was 0.49 ± 0.02 S/m and the viscosity (343.15 K, x1 = 0.25) was 43.88 ± 0.76 mPa·s. The viscosity (343.15 K, x1 = 0.5) was 58.77 ± 1 mPa·s, the viscosity (343.15 K, x1 = 0.75) was 65.45 ± 1.1 mPa·s and the viscosity (343.15 K, x1 = 1) was 63.6 ± 1.1 mPa·s. It also gave an electrical conductivity (343.15 K, x1 = 0.25) of 0.651 ± 0.026 S/m, an electrical conductivity (343.15 K, x1 = 0.5) of 0.608 ± 0.024 S/m and an electrical conductivity (343.15 K, x1 = 0.75) of 0.599 ± 0.024 S/m. The electrical conductivity (343.15 K, x1 = 1) was 0.614 ± 0.025 S/m, the mass density (343.15 K, x1 = 0.25) was 1136.27 ± 2.5 kg/m3 and the mass density (343.15 K, x1 = 0.5) was 1111.52 ± 2.4 kg/m3. For the same molecule, the mass density (343.15 K, x1 = 0.75) was 1079.6 ± 2.3 kg/m3, the mass density (343.15 K, x1 = 1) was 1054.52 ± 2.2 kg/m3 and the electrical conductivity (348.15 K, x1 = 0.25) was 0.783 ± 0.031 S/m. For the same molecule, the electrical conductivity (348.15 K, x1 = 0.5) was 0.744 ± 0.03 S/m, the electrical conductivity (348.15 K, x1 = 0.75) was 0.733 ± 0.029 S/m and the electrical conductivity (348.15 K, x1 = 1) was 0.756 ± 0.03 S/m. The viscosity (353.15 K, x1 = 0.25) was 29.62 ± 0.51 mPa·s, the viscosity (353.15 K, x1 = 0.5) was 39.64 ± 0.68 mPa·s and the viscosity (353.15 K, x1 = 0.75) was 43.5 ± 0.75 mPa·s. The viscosity (353.15 K, x1 = 1) was 42.44 ± 0.73 mPa·s, the electrical conductivity (353.15 K, x1 = 0.25) was 0.929 ± 0.037 S/m and the electrical conductivity (353.15 K, x1 = 0.5) was 0.899 ± 0.036 S/m. The electrical conductivity (353.15 K, x1 = 0.75) was 0.885 ± 0.035 S/m, the electrical conductivity (353.15 K, x1 = 1) was 0.918 ± 0.037 S/m and the mass density (353.15 K, x1 = 0.25) was 1130.03 ± 2.5 kg/m3. It also gave a mass density (353.15 K, x1 = 0.5) of 1105.54 ± 2.4 kg/m3, a mass density (353.15 K, x1 = 0.75) of 1073.24 ± 2.2 kg/m3 and a mass density (353.15 K, x1 = 1) of 1049.21 ± 2.1 kg/m3. The electrical conductivity (358.15 K, x1 = 0.25) was 1.09 ± 0.044 S/m, the electrical conductivity (358.15 K, x1 = 0.5) was 1.07 ± 0.043 S/m and the electrical conductivity (358.15 K, x1 = 0.75) was 1.06 ± 0.042 S/m. The electrical conductivity (358.15 K, x1 = 1) was 1.1 ± 0.044 S/m, the viscosity (363.15 K, x1 = 0.25) was 20.94 ± 0.36 mPa·s and the viscosity (363.15 K, x1 = 0.5) was 28.06 ± 0.48 mPa·s. For the same molecule, the viscosity (363.15 K, x1 = 0.75) was 30.46 ± 0.52 mPa·s, the viscosity (363.15 K, x1 = 1) was 29.82 ± 0.51 mPa·s and the electrical conductivity (363.15 K, x1 = 0.25) was 1.27 ± 0.051 S/m. It also gave an electrical conductivity (363.15 K, x1 = 0.5) of 1.27 ± 0.051 S/m, an electrical conductivity (363.15 K, x1 = 0.75) of 1.25 ± 0.05 S/m and an electrical conductivity (363.15 K, x1 = 1) of 1.3 ± 0.052 S/m. It also gave a mass density (363.15 K, x1 = 0.25) of 1123.8 ± 2.4 kg/m3, a mass density (363.15 K, x1 = 0.5) of 1099.56 ± 2.3 kg/m3 and a mass density (363.15 K, x1 = 0.75) of 1066.87 ± 2.2 kg/m3. The mass density (363.15 K, x1 = 1) was 1043.9 ± 2.1 kg/m3, the electrical conductivity (368.15 K, x1 = 0.25) was 1.47 ± 0.059 S/m and the electrical conductivity (368.15 K, x1 = 0.5) was 1.49 ± 0.059 S/m. It also gave an electrical conductivity (368.15 K, x1 = 0.75) of 1.46 ± 0.058 S/m, an electrical conductivity (368.15 K, x1 = 1) of 1.52 ± 0.061 S/m and a viscosity (373.15 K, x1 = 0.25) of 15.38 ± 0.26 mPa·s. It also gave a viscosity (373.15 K, x1 = 0.5) of 20.68 ± 0.36 mPa·s, a viscosity (373.15 K, x1 = 0.75) of 22.27 ± 0.38 mPa·s and a viscosity (373.15 K, x1 = 1) of 21.87 ± 0.38 mPa·s. The mass density (373.15 K, x1 = 0.25) was 1117.56 ± 2.4 kg/m3, the mass density (373.15 K, x1 = 0.5) was 1093.58 ± 2.3 kg/m3 and the mass density (373.15 K, x1 = 0.75) was 1060.51 ± 2.2 kg/m3. It also gave a mass density (373.15 K, x1 = 1) of 1038.59 ± 2.1 kg/m3.
